Data from patent publication EP2363135B1, “Anti-jellyfish compositions” (Antonio Puig, S.A., priority 2010, dated 2011).
Where two headings read alike, the source gives them in different places.

Tests used:
[1] = tested on: Pelagia noctiluca; test: in vitro inhibition of cnidocyst discharge, physical contact with a gelatin probe; assay type: cell-based; details: 0.5 M in gelatin probe; for Discharged cnidocysts/mm^2 (%): control = 100; for Inhibition (%): versus control
Procedure: The efficacy of plant extracts and phytocompounds, in inhibiting cnidocyst discharge of Pelagia noctiluca (which is one of the most common species along the Mediterranean Sea) was evaluated by physical contact with a gelatin probe. Said probes, besides stimulating the cnidocyte battery, retained the different types of discharged cnidocysts that can have different sizes, thereby allowing a quantitative evaluation of the response.
Each gelatin probe was made coating one end of a 6 cm length of monofilament fishing line (1 mm diameter) with 25% (w/v) gelatin in deionized water and then placed in a humidified atmosphere during 30 minutes for gelatin solidification. The different substances to be tested were dissolved in deionized water at selected concentrations before the addition of gelatin: oat extract (Burgundi Cosmetics) and tea extract (Symrise lberica) were used at a final concentration of active agent of 0.025 % (w/v); dipotassium glycyrrhizate and hydroxytyrosol were used at a concentration of 0.5 M. Plain gelatin covered probes (no embebed active compound) were used as controls and represented maximum discharge figures.
After solidification, each gelatin probe was gently wiped across oral arms of Pelagia noctiluca 5 times from 1 to 5 seconds in the tanks. The probes were then placed in humidified atmosphere plates and observed under a steroemicroscope for cnidocyst quantification. Individual cnidocysts that had discharged into the gelatin probes were counted in 7 different fields of view and the mean value was calculated. Results are the average of triplicate probes.
An inhibitory effect was considered if the substance diminished the number of discharged nematocytes per mm^2 of gelatin probe as compared with controls.
The graphical representation of the interaction between two active compounds could be expressed as follows. […] The straight line connecting the effects of both substances on their own is the locus of points that will produce this effect in a simple additive combination, the additivity line.
FIG. 1 and FIG. 2 represent, respectively, the interaction between oat extract and lanthanum and tea extract and lanthanum in the inhibition of cnidocyst discharge. The number of discharged cnidocysts in Pelagia noctiluca was analysed for each combination of active agents by physical contact with a gelatin probe as described in Example 2. The doses of each of the constituents are referred as concentrations of active agent, i.e. of pure oat or green tea extract, and lanthanum cation.

[2] = tested on: in situ cnidocytes of Pelagia noctiluca (Scyphozoa); details: cited from earlier work

Row | Compound | Discharged cnidocysts/mm^2 (%) [1] | Inhibition (%) [1] | cnidocyst discharge ([2]; oral arms previously treated with 20 µmol/L) | cnidocyst discharge ([2]; oral arms previously treated with 2 mmol/L)
1 | CC1(C)[C@@H](O[C@H]2O[C@H](C(=O)O)[C@@H](O)[C@H](O)[C@H]2O[C@@H]2O[C@H](C(=O)O)[C@@H](O)[C@H](O)[C@H]2O)CC[C@]2(C)[C@H]3C(=O)C=C4[C@@H]5C[C@@](C)(C(=O)O)CC[C@]5(C)CC[C@@]4(C)[C@]3(C)CC[C@@H]12 [Dipotassium glycyrrhizate, dipotassium glycyrrhizate] | 32,7% | -67,3% |  | 
2 | OCCc1ccc(O)c(O)c1 [WHidroxytyrosol, hydroxytyrosol] | 43,6% | -56,4% |  | 
3 | [Gd+3] [Gd^3+, gadolinium] |  |  | the discharge was inhibited | 
4 | [La+3] [La^3+, lanthanum] |  |  |  | the discharge was inhibited
